Results on 2 substances are retold here after publication PMC10082830, “A tailored tetravalent peptide displays dual functions to inhibit amyloid β production and aggregation” (Communications Biology, 2023).

Assay [1] concerns the target T1, Aβ42 (Homo sapiens, UniProt P05067).
T1 construct: the plate was incubated with various concentrations of Aβ1–28, Aβ40, or Aβ42 (Peptide Institute); purchased Peptide Institute
The settings on record: equivalent molar concentration, after 8 h of incubation, Thioflavin T-binding assay; cited from earlier work.

Assay [2] addresses T1, Aβ42. The experiment in a line: ELISA binding between Aβ and LME peptides. The conditions noted are these: LME-mono (33 µM) applied on plate, n = 3. As to the method:
(§1) The indicated amounts of LME-tet (8.3 µM) or LME-mono (33 µM) were applied onto each well of a regular 96-well ELISA plate (Thermo Fisher Scientific) and incubated overnight for 24 h. After blocking, the plate was incubated with various concentrations of Aβ1–28, Aβ40, or Aβ42 (Peptide Institute) for 2 h at room temperature. Bound Aβ was detected using mouse monoclonal anti-human Aβ antibody 82E1 (Immuno-Biological Laboratories Co., Ltd.) and HRP-conjugated horse anti-mouse IgG antibody (Cell Signaling Technology).

In the next assay the test system is Aβ1–28. The experiment in a line: ELISA binding between Aβ and LME peptides. The conditions noted are these: LME-tet (8.3 µM) or LME-mono (33 µM) applied on plate, Aβ 2 h at room temperature, n = 3. On the procedure: as §1
The next assay concerns the target T2, Aβ40 (Homo sapiens, UniProt P05067).
T2 construct: purchased Peptide Institute
The experiment in a line: ELISA binding between Aβ and LME peptides. The conditions noted are these: LME-mono (33 µM) applied on plate, n = 4. As to the method:
as §1
For orientation: An ELISA detects its analyte on a solid surface through an enzyme-linked reagent.

In a further assay the test system is 7WD10 cells. The experiment in a line: Lysosomal protease inhibitor treatment of 7WD10 cells, western blot. It counts as cell-based, Chinese Hamster. The settings on record: LME-tet (25 µM) or LME-mono (100 µM), lysosomal PI cocktail (E-64, leupeptin), 48 h. A general note: A western blot detects proteins with antibodies after separation by electrophoresis.
Assay [3] deals with 7WD10 Chinse Hamster Ovary (CHO) cells stably expressing human APP. The experiment in a line: Aβ production in 7WD10 cells, western blot of culture medium and cell lysates. The format is cell-based, Chinese Hamster. The settings on record: 48 h, tetravalent peptides 50 µM, LME-mono 100 and 200 µM, n = 3. On the procedure: 7WD10 Chinse Hamster Ovary (CHO) cells were treated with each tetravalent peptide (50 µM) for 48 h; cell lysates (for intracellular C99 and Aβ) and culture medium (for extracellular Aβ) from peptide-treated and vehicle control-treated cells were analyzed by western blot. Data are graphed as the percentage of the control value, showing the mean ± SE; n = 3. Significance vs. vehicle was calculated by analysis of variance (ANOVA), followed by one-sided Dunnett’s test; *P < 0.05, **P < 0.01. c Effect of increasing concentrations of LME-tet on Aβ production (left panel). 7WD10 cells were treated with vehicle control or LME-tet at the indicated concentrations for 48 h, and the culture medium was analyzed by western blot. Data are graphed as the percentage of the control value, showing the mean ± SE; n = 3. Significance vs. vehicle was calculated by ANOVA, followed by one-sided Dunnett’s test; *P < 0.05, **P < 0.01. Effect of LME-mono on Aβ production (right panels). 7WD10 cells were treated with vehicle control or LME-mono at the indicated concentrations for 48 h; cell lysates (for intracellular C99 and Aβ) and culture medium (for extracellular Aβ) were analyzed by western blot. […] Significance vs. vehicle was calculated by ANOVA, followed by one-sided Dunnett’s test; *P < 0.05. d Binding of LME-tet and LME-mono to Aβ1-28, Aβ40 and Aβ42 was measured by enzyme-linked immunosorbent assay (ELISA). […]

Assay [4] concerns the target T1, Aβ42. The experiment in a line: Circular dichroism spectroscopy of Aβ42 conformational change. The conditions noted are these: Aβ42 20 µM, peptide 2 µM, 50 mM sodium phosphate buffer pH 7.4, 37 °C, far-UV CD, molar ellipticity at 217 nm. On the procedure: Fig. 5 LME-tet inhibits the conformational change and subsequent fibrillation of Aβ42. a Binding of LME-tet to extracellular Aβ. Culture medium from 7WD10 cells recovered after 48 h of growth was treated with biotinylated LME-tet (50 µM) or LME-mono (200 µM). Medium was then incubated with streptavidin beads, and coprecipitating Aβ40 and Aβ42 were analyzed by western blot using anti-Aβ or anti-Aβ42-specific antibody. b Time-dependent conformational change in Aβ42 (20 µM) in the presence of LME-tet (2 µM, lower left panel) or LME-mono (2 µM, upper right panel). Far-UV circular dichroism (CD) spectra (wavelength 190–250 nm) were measured at the indicated time points. […] Data represent the mean ± SE; n = 3–4. c Fibrillation profiles of Aβ42 in the presence of LME-tet (2 µM) or LME-mono (2 µM), measured by Thioflavin T-binding assay. […] Data represent the mean ± SE; n = 3. d Fibrillation profiles of Aβ42 in the presence of LME-tet (2 µM) or LME-mono (2 µM), analyzed by electron microscopy; representative images at ×10 K, ×50 K, and ×200 K magnification (left, right, and center, respectively) are shown. Scale bars indicate 2 µm, 400 nm, and 100 nm, respectively. e Effects of LME-tet (2 µM) on growth of Aβ42 fibril in the presence of 2% (v/v) Aβ42 fibril-seed, measured by the Thioflavin T-binding assay. […]

Ends that are not written are not given here.

T1 sequence (P05067 672-713 limits assumed): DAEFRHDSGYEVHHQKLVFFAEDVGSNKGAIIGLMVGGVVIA
T2 sequence (P05067 672-711 limits assumed): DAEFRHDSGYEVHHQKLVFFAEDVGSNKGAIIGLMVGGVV

Regarding Ac-KL-NVF-NFA-NH2, the “inhibition of fibrillation of Aβ42” value on Aβ42 [1] is recorded as 40%.
For “PKLRMKE [LME-mono, monomeric peptide with the same motif, Pro-Lys-Leu-Arg-Met-Lys-Glu]”, the “binding to Aβ42” value on Aβ42 [2] is listed as “unable to bind”. For the same substance, the “binding to Aβ1–28” value in the assay on Aβ1–28 is “unable to bind”. In addition, at Aβ40, the “binding to Aβ40” value is given as “unable to bind”. For the same substance, the “PI-dependent increase of intracellular APP, C99, Aβ, p62 and LC3-II” value in the assay with 7WD10 cells was “does not affect”. In addition, the “inhibitory effect on production of Aβ” value in assay [3] is reported as “has no effect”. For the same substance, the “conformational change of Aβ42 (β-sheet formation)” value at Aβ42 [4] is “no effect was observed”.
